# Patent US7166612B2, “Methods for reducing platelet activation platelet aggregaton or thrombosis” (Beth Israel Deaconess Medical Center, priority 2001, dated 2007)
# Key:
# [1] = molecular target: T1, human platelet PDE5 (Homo sapiens, UniProt O76074); assay: phosphodiesterase inhibition, PDE5; assay type: biochemical; settings: up to 1 μM, in words
# T1 construct: from tissue; host or cells: human platelets
# Description: (§1) Intracellular cAMP generated by adenylyl cyclase in platelets is actively hydrolyzed by phosphodiesterase. […] Human platelets express PDE2, PDE3, and PDE5. Therefore, the compound was tested for its inhibitory effect on these phosphodiesterases using methods as described in Example 3.
# [2] = system: platelet F-actin assembly; assay: F-actin assembly (FITC-phalloidin, flow cytometry); assay type: cell-based; settings: in words
# Excerpt: To determine whether or not the effects of the pyridazinone compound were limited to inhibition of alpha-granule secretion, the ability of the compound to inhibit F-actin assembly and aIIbβ3 activation was examined. F-actin assembly was detected using FITC-phalloidin and quantified by flow cytometry (Winokur et al., 1995, Blood 85, 1796–804; Oda et al., 1992, Blood 79, 920–7).
# [3] = molecular target: recombinant human PDE2 (Homo sapiens, UniProt O00408); assay: phosphodiesterase inhibition, PDE2; assay type: biochemical; settings: up to 1 μM, in words
# Chain of recombinant human PDE2 (O00408 whole entry): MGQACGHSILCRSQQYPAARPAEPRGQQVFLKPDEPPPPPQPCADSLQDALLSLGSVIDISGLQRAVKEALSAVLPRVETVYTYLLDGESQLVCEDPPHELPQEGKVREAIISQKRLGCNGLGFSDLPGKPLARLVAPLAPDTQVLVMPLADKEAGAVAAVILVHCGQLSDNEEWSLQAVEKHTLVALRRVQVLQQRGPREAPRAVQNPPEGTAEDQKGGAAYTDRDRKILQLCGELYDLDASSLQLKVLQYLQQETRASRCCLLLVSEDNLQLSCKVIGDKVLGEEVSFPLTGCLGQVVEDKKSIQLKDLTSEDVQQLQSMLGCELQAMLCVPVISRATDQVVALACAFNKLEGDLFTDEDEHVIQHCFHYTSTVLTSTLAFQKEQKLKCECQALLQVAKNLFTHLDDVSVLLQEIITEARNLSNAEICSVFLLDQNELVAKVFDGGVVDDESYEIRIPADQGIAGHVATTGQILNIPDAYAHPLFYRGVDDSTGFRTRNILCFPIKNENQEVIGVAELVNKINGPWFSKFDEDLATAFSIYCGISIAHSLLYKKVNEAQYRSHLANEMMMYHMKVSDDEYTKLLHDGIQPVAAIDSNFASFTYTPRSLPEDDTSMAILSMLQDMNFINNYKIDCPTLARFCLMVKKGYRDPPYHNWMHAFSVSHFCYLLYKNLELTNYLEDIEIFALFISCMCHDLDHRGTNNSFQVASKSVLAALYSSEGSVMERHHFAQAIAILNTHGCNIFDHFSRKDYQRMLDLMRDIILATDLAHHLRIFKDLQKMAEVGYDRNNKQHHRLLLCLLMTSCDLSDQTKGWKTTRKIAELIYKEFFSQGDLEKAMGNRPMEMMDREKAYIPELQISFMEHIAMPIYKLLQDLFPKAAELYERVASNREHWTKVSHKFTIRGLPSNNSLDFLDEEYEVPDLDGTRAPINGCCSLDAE
# Description: as §1
# [4] = system: platelets; assay: platelet aggregation (aggregometer); assay type: cell-based, human; settings: in words
# Description: Platelet aggregation profiling is a standard methodology, generally performed with an instrument adapted for that express purpose, for example, a Platelet Aggregation Profiler (BioData, Horsham, Pa.). The assays can generally be performed according to the instructions of the manufacturer. As exemplary conditions, 400 μl of PRP are incubated with inhibitor for 15 minutes at room temperature. The sample is then incubated for 3 minutes at 37° C. in the Platelet Aggregation Profiler. The instrument is calibrated with platelet poor plasma serving as a blank. A baseline tracing is established by monitoring the light transmittance of PRP being stirred at 1200 rpm. Aggregation is initiated by the addition of SFLLR (200 μM) and the percent of platelet aggregation is measured by the change in light transmittance for 6 minutes following addition of SFLLR.
# [5] = system: platelets; assay: agonist-induced platelet granule secretion (P-selectin expression, flow cytometry); assay type: cell-based, human; settings: for effect on PMA-induced platelet activation: in words
# Description: In order to assay platelet activation by cell surface marker expression, fresh PRP is isolated from donors who have not ingested aspirin for two weeks prior to donation. PRP (40 μl) is incubated with known or suspected inhibitor in DMSO or DMSO alone for 15 min. The sample is then incubated with the indicated agonist (e.g., SFLLR) for 10 min. Following incubation of the sample with the indicated agonist, 10 μl of reaction mixture is transferred to 5 μl of phycoerythrin (PE)-conjugated AC 1.2 anti-P-selectin antibody (for assessment of P-selectin surface expression) or fluorescein isothiocyanate (FITC)-conjugated PAC-1 antibody (for assessment of GPIIbIIIa activation). PBS (500 μl) is added to the sample after a 20 min incubation and the platelets are analyzed immediately by flow cytometry. Flow cytometry can be performed using, for example, a Becton-Dickinson FACSCalibur flow cytometer or its equivalent. Fluorescent channels are set at logarithmic gain. Ten thousand particles are acquired for each sample. A 530/30 band pass filter is used for FL-1 fluorescence. A 585/42 band pass filter is used for FL-2 fluorescence. FITC is measured in the FL-1 channel and PE is measured in the FL-2 channel. Data are analyzed using, for example, CellQuest software on a Macintosh PowerPC, or their equivalents. […]
# Each of the compounds was tested for inhibition of platelet activation in response to the agonists SFLLR (a thrombin mimic), U46619 (a thromboxane A2 mimic), ADP and the phorbol ester PMA.
# Compounds were also tested by flow cytometry for the inhibition of SFLLR-induced GPIIbIIIa activation and P-selectin expression. In these experiments, freshly obtained PRP was prepared from healthy volunteers who had not ingested aspirin for two weeks prior to donation. Forty μl of PRP was incubated with inhibitor in DMSO or DMSO alone for 15 min. The sample was then incubated with the indicated agonist for 10 min. Following incubation of the sample with the indicated agonist, 10 μl of reaction mixture was transferred to 5 μl of PE-conjugated AC1.2 anti-P-selectin antibody (for assessment of P-selectin surface expression) or FITC-conjugated PAC-1 antibody (for assessment of GPIIbIIIa activation). PBS (500 μl) was added to the sample after a 20 min incubation and the platelets were analyzed immediately by flow cytometry. Flow cytometry was performed using a Becton-Dickinson FACSCalibur flow cytometer. Fluorescent channels were set at logarithmic gain. Ten thousand particles were acquired for each sample. A 530/30 band pass filter was used for FL-1 fluorescence. A 585/42 band pass filter was used for FL-2 fluorescence. FITC was measured in the FL-1 channel and PE was measured in the FL-2 channel. Data were analyzed using CellQuest software on a MacIntosh PowerPC.
# Compound was tested for its ability to inhibit SFLLR-, U46619-, ADP-, PMA-, and collagen I-induced platelet α-granule secretion. In these assays, platelets were incubated with increasing doses of compound for 30 minutes. The platelets were then exposed to a maximally stimulatory dose of the indicated agonist. P-selectin surface expression was analyzed by flow cytometry using phycoerythrin-anti-P-selectin to monitor for α-granule secretion.
# [6] = listed as Pyridazinone compound
# [7] = listed as pyridazinone compound
smiles,measurement,setting,value
"CC1CC(=O)NN=C1c1ccc(N)c([N+](=O)[O-])c1 (stereo not drawn) [6-(4-Amino-3-nitro-phenyl)-5-methyl-4,5-dihydro-2H-pyridazin-3-one]",inhibition of human platelet PDE5,[1]; [6],No significant inhibition
same,inhibition of human platelet PDE5,[1]; [7],little inhibition
same,SFLLR-induced F-actin assembly,[2],interferes with SFLLR-induced cytoskeleton rearrangement
same,inhibition of recombinant human PDE2,[3]; [6],No significant inhibition
same,inhibition of recombinant human PDE2,[3]; [7],little inhibition
same,inhibition of SFLLR-induced platelet aggregation,[4],potent inhibitor
same,IC50s for ADP- and collagen-induced granule release less potent than SFLLR/U46619,"[5]; ADP, collagen vs SFLLR, U46619",at least 25 fold
same,effect on PMA-induced platelet activation,[5]; listed as Structure 8,did not inhibit
same,effect on PMA-induced platelet activation,[5]; [7],No inhibition
